Assay results from ChEMBL document CHEMBL1201862, “PubChem BioAssay data set” (2004).
Values joined by “and” are separate entries in the source; they are usually repeats but may differ in a detail not shown here. Identical values can stand only once. Active and inactive are the calls of the source.

Experiments:
[1] = target: T1, Protein skinhead-1 (Caenorhabditis elegans, UniProt P34707); assay type: functional
T1 sequence (P34707 whole entry): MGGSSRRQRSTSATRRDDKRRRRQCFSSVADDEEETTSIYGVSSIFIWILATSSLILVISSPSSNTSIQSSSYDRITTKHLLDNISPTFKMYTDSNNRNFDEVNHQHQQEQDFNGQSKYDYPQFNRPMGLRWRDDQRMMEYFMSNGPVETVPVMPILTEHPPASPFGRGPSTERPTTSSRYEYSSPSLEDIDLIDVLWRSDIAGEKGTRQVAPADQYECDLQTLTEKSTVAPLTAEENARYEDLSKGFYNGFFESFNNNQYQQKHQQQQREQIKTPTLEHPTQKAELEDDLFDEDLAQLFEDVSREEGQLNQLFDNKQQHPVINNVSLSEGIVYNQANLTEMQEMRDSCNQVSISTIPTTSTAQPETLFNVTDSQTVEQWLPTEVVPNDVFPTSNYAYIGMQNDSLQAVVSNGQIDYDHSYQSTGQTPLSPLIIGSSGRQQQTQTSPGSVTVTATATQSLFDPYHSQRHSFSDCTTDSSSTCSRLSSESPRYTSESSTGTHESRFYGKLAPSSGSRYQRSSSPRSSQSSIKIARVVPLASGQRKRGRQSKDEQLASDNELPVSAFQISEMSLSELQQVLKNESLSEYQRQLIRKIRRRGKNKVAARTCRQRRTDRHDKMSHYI

[2] = target: NAD-dependent protein deacylase sirtuin-5, mitochondrial (Homo sapiens, UniProt Q9NXA8); assay: SIRT5 desuccinylase inhibitors, dose response, biochemical, fluorescence imaging, cherry-pick, set 5 (AID 720591);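 further: desuccinylation of succinyl peptide AMC substrate read as fluorescence after trypsin release; potency of inhibitors that lower fluorescence and may act on trypsin instead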
Chain of NAD-dependent protein deacylase sirtuin-5, mitochondrial (Q9NXA8 whole entry): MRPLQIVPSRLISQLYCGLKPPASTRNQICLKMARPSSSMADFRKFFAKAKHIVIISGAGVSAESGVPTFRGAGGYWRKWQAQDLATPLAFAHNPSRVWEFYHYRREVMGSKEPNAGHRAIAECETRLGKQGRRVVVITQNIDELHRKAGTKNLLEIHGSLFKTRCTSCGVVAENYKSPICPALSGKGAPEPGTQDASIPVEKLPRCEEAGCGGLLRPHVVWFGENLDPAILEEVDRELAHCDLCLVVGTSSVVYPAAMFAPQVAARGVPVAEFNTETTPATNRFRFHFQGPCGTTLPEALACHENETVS

[3] = system: A549; assay: A549 cell toxicity, dose response, cytotoxicity control, plate reader, cherry-pick samples (AID 687028); assay type: functional, cell-based; settings: Homo sapiens
[4] = system: HeLa; assay: HeLa cell cytotoxicity, dose response, cytotoxicity control, ATP luminescence, cherry-pick samples (AID 687004); assay type: functional, cell-based; settings: Homo sapiens
[5] = target: T2, Adenosylmethionine-8-amino-7-oxononanoate aminotransferase (Mycobacterium tuberculosis, UniProt P9WQ81); assay: Mycobacterium tuberculosis BioA enzyme inhibitor Measured in Biochemical System Using Plate Reader - 2163-02_Inhibitor_Dose_CherryPick_Activity.; assay type: functional, Mycobacterium tuberculosis UT205
T2 sequence (P9WQ81 whole entry): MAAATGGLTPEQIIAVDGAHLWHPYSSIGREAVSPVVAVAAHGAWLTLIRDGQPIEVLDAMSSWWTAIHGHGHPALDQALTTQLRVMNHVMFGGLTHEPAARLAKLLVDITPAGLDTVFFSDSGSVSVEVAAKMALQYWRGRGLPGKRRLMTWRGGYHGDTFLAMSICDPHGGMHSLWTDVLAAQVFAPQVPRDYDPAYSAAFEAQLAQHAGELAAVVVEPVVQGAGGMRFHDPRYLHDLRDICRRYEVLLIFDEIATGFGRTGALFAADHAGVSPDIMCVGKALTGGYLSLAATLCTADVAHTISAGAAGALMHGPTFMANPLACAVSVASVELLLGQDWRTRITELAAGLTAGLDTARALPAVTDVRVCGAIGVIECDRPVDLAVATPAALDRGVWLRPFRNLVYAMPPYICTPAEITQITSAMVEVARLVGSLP

[6] = system: HEK293; assay: HEK293T cell cytotoxicity, dose response, cytotoxicity control, ATP luminescence, cherry-pick samples (AID 687005); assay type: functional, cell-based; settings: Homo sapiens;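 further: cells exposed to compound for 48 hours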
[7] = HEK293 Cytotoxicity Assay Measured in Cell-Based System Using Plate Reader - 7071-01_Inhibitor_Dose_CherryPick_Activity_Set2.; assay type: functional
[8] = inhibitors of PGC1a acetylation in cells, dose response, cell-based, cherry-picked samples (AID 720514); assay type: functional;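 further: potency may reflect raised or lowered acetylation signal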
[9] = luciferase signal loss, tTA control fusion, HeLa F-luc tTA cells, dry powder, counter-screen for HIV Env fusion inhibitor project, dose response (AID 687021); assay type: functional, cell-based
[10] = HIV Env cell-cell fusion inhibitors, dose response, HIV entry, plate reader, dry powder (AID 687023); assay type: functional, cell-based
[11] = CEM21 cell cytotoxicity, dose response, cytotoxicity control, plate reader, dry powder (AID 687026); assay type: functional, cell-based
[12] = cytotoxicity in HeLa cells, dose response, cytotoxicity control, cell-based, plate reader, dry powder (AID 651946); assay type: functional
[13] = inhibitors of non-replicating M. tuberculosis, dose response, luciferase, dry powder (AID 651620); assay type: functional; settings: Mycobacterium tuberculosis
[14] = inhibitors of non-replicating M. tuberculosis, dose response, luciferase, dry powder (AID 651619); assay type: functional; settings: Mycobacterium tuberculosis
[15] = cytotoxicity in HEK293 cells, dose response, cytotoxicity control, cell-based, cherry-picked samples (AID 1053185); assay type: functional
[16] = cytotoxicity in HepG2 cells, dose response, cytotoxicity control, cell-based, cherry-picked samples (AID 1053183); assay type: functional
[17] = CTGF mRNA reduction under YAP1 overexpression, dose response, mechanism study for YAP1 pathway inhibitor project, DLD1 cells, RT-qPCR, cherry-pick (AID 1053127); assay type: functional, cell-based; settings: DLD-1
[18] = Late stage assay provider results from the probe development effort to identify inhibitors of the Plasmodium falciparum M18 Aspartyl Aminopeptidase (M18AAP): radiolabel-based cell-based dose response assay to identify compounds that inhibit P. falciparum growth in RBCs, Set 2..; assay type: functional
[19] = target: Protein Wnt-3a (Mus musculus, UniProt P27467); assay: SAR analysis of small molecule antagonists of Gli-SUFU in a Wnt3a luminescent reporter assay.; assay type: functional
Chain of Protein Wnt-3a (P27467 whole entry): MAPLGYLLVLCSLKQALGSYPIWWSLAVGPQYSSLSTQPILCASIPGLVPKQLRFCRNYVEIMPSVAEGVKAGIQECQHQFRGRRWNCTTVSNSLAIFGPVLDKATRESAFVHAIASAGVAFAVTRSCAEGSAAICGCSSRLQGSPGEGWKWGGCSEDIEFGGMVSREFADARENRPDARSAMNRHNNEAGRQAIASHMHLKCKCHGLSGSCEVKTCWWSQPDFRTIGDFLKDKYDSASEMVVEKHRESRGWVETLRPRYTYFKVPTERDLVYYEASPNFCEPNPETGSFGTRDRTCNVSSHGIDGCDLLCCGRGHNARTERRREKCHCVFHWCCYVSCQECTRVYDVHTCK

[20] = target: NS3 (Hepatitis C virus, UniProt A3EZJ3); assay: HCV NS3 helicase inhibitor potency, dose response, biochemical, fluorescence polarization, ChemBridge library (AID 743264)
Chain of NS3 (A3EZJ3 whole entry): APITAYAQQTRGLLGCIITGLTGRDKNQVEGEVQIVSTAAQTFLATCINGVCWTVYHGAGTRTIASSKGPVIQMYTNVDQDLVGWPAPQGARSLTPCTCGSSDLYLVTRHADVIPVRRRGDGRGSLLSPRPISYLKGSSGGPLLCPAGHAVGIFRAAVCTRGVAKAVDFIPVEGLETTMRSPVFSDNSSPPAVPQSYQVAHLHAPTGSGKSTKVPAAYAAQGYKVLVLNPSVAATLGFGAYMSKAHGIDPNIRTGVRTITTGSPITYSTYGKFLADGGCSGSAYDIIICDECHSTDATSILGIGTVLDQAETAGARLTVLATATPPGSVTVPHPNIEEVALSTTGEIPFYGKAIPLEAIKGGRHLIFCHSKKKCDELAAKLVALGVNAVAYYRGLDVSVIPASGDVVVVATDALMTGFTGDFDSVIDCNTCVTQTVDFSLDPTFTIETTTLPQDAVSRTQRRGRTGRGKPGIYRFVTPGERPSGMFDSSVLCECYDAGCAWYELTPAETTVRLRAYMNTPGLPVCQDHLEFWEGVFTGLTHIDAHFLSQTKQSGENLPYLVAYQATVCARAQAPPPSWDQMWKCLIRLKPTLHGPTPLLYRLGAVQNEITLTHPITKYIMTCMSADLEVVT

With Fc1ccc(-c2nc3ccc(Cl)cn3c2Cc2ccsc2)cc1 the IC50 [1] was 70.3 µM (inactive) and the AC50 [2] was 25.8 µM (active).

For COc1ccc(S(=O)(=O)N2CCN(CC(=O)NC3CC3)CC2)cc1, the AC50 [3] was 35.1 µM (active).

For O=C(C1CCOCC1)N1CC[C@@H]2[C@H]1c1cc(Br)ccc1N[C@@H]2CO, the AC50 [4] was > 52 µM (inactive) and the AC50 [5] was 4.59 µM (active).

With C[C@@H]1CN([C@@H](C)CO)C(=O)Cc2cc(NC(=O)c3ccncc3)ccc2O[C@H]1CN(C)Cc1ccncc1 the AC50 [6] was > 52 µM (inactive) and the AC50 [7] was > 52 µM (inactive).

In the case of CC(C)CC#Cc1ccc2c(c1)O[C@@H](CN(C)Cc1ccc3c(c1)OCO3)[C@H](C)CN([C@H](C)CO)S2(=O)=O, the AC50 [8] is reported as 12.6 µM (active).

For CCOc1ccc(C)cc1S(=O)(=O)NCc1ccncc1, the AC50 [9] was > 70 µM (inactive), the AC50 [10] was 4.69 µM (active) and 8.19 µM (active) and the AC50 [11] was > 70 µM (inactive).

With Clc1ccc(-c2nnc(SCc3cn(-c4ccccc4)nn3)o2)cc1 the AC50 [12] was > 52 µM (inactive), the IC90 [13] was 1 µM (active) and the IC90 [14] was 1 µM (active).

With C[C@H]1CNC(=O)[C@@H](Cc2ccc(C(F)(F)F)cc2)CCn2nncc2COC1 the AC50 [15] was > 52 µM (inactive) and the AC50 [16] was 35.5 µM (active).

With O=C(Nc1ccc(C(F)(F)F)cc1)Nc1ccc2c(c1)[C@H]1C[C@H](CC(=O)N3CCc4ccccc4C3)O[C@@H](CO)[C@H]1O2 the AC50 [17] was > 26 µM (inactive).

For COc1ccc(C2CCN(c3ccnc4ccccc34)C2)cc1OC (stereo not given), the IC50 [18] was 2 µM (active).

With CN(C)c1cc(NC(=O)c2cccc(F)c2)ncn1 the IC50 [19] was > 21.8 µM (inactive).

For Cc1ccc(C(=O)O)cc1-n1c(C)ccc1C, the IC50 [20] was 7.6 µM (inactive).
